Common to all, as to assay: cell-based
One assay concerns the target human CB2 receptor (Homo sapiens, UniProt P34972). The format is cell-based.
Another assay has as its target T1, rat CB2 receptor (Rattus norvegicus, UniProt Q9QZN9).
T1 sequence (Q9QZN9 1-360): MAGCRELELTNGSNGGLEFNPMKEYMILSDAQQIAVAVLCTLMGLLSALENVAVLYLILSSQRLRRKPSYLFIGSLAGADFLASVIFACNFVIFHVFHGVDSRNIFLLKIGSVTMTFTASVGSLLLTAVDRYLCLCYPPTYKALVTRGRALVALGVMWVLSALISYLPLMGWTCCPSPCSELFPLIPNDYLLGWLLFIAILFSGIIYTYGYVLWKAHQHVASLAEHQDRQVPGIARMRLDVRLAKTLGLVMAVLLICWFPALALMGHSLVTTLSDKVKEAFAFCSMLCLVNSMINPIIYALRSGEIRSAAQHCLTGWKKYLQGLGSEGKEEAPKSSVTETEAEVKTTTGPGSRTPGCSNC
The class given is cell-based.

The target of a further assay is human CB1 receptor (Homo sapiens, UniProt P21554).
The mark [1] stands for this setting: change in intracellular cAMP, CHO-K1 hCB2 cells, class AR, read-out: EC50 values for human CB2 receptor.

Ten compounds from patent publication US7960377B2 (priority 2008, dated 2011) can be followed below.

Like-named read-outs stand apart in the source and are kept apart here.

human CB1 receptor, sequence (P21554 whole entry): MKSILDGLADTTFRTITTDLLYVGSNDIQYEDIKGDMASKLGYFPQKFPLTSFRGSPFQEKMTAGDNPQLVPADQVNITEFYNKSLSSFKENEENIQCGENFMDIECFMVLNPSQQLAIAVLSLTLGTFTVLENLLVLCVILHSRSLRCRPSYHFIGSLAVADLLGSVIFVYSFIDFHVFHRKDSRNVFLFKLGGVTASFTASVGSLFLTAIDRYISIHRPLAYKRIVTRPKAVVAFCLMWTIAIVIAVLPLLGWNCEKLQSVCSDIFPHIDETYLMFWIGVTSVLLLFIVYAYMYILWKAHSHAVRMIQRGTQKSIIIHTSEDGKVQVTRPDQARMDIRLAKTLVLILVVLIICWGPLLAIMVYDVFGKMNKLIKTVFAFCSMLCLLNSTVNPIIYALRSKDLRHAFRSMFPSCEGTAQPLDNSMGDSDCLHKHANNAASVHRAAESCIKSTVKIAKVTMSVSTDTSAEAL
human CB2 receptor, sequence (P34972 whole entry): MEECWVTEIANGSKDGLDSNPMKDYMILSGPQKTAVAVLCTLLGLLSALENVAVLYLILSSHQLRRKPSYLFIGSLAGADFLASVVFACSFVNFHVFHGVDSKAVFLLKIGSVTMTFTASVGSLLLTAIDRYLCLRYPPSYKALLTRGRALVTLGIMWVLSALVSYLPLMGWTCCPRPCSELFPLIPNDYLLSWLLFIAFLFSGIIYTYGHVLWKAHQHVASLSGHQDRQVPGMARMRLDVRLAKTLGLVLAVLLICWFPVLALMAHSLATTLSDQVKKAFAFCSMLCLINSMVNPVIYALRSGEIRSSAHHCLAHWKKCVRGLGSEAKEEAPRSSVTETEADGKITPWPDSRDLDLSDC

Usually EC50 stands for the concentration that produces a half-maximal response. On to `CCC(C)(C)NC(=O)c1cnc2c(c1)N(S(=O)(=O)c1ccc(C(F)(F)F)cc1)CCO2` [Example 66, N-tert-pentyl-1-(4-(trifluoromethyl)phenylsulf-onyl)-2,3-dihydro-1H-pyrido[2,3-b][1,4]oxazine-7-carboxamide], for which the EC50 was at most 0.03 µM at human CB2 receptor, at most 0.03 µM at rat CB2 receptor and above 30 µM on human CB1 receptor.
`O=C(O)[C@H]1CCCCN1C(=O)c1cnc2c(c1)N(S(=O)(=O)c1ccc(C(F)(F)F)cc1)CCO2` [Example 78, (R)-1-(1-(4-(trifluoro-methyl)phenylsulfonyl)-2,3-dihydro-1H-pyrido-[2,3-b][1,4]oxazine-7-carbonyl)piperidine-2-carboxylic acid]: the half-maximal effective concentration (EC50) at human CB2 receptor (setting [1]), on rat CB2 receptor and on human CB1 receptor was above 30 µM in each case.
For the compound `O=C(N[C@@H]1CCCC[C@H]1O)c1cnc2c(c1)N(S(=O)(=O)c1ccc(Cl)c(Cl)c1)CCO2` [Example 135, 1-(3,4-dichlorophenyl-sulfonyl)-N-((1R,2R)-2-hydroxycyclohexyl)-2,3-dihydro-1H-pyrido[2,3-b][1,4]oxazine-7-carboxamide], the EC50 was above 30 µM on human CB2 receptor, at most 0.03 µM at rat CB2 receptor and above 30 µM on human CB1 receptor.
As for `CCC(C)(C)NC(=O)c1cnc2c(c1)N(S(=O)(=O)N1CCC(N3CCCC3)CC1)CCO2` [Example 177, N-tert-pentyl-1-(4-(pyrrolidin-1-yl)piperidin-1-ylsulfonyl)-2,3-dihydro-1H-pyrido[2,3-b][1,4]oxazine-7-carboxamide], the EC50 on human CB2 receptor, on rat CB2 receptor and on human CB1 receptor was above 30 µM in each case.
Turning to `CC(C)(C)c1cc(NC(=O)c2cnc3c(c2)N(S(=O)(=O)N2CCC(C(F)(F)F)CC2)CCO3)on1` [Example 153, N-(3-tert-butylisoxazol-5-yl)-1-(4-(trifluoromethyl)piperidin-1-ylsulfonyl)-2,3-dihydro-1H-pyrido[2,3-b][1,4]oxazine-7-carboxamide], the EC50 at human CB2 receptor is above 30 µM; at rat CB2 receptor it was at most 0.03 µM; on human CB1 receptor, at most 0.3 µM. Moreover, the “inverse agonist mark, rat CB2 receptor” value at rat CB2 receptor (asterisk at the compound number) is given as 146, 148, 149, 150, 151, 152, 153*, 154*, 155, 156, 157, 163, 164,.
Turning to `CC(C)(C)N(CCCN)C(=O)c1cnc2c(c1)N(S(=O)(=O)c1ccc(C(F)(F)F)cc1)CCO2` [Example 45, N-(3-aminopropyl)-N-tert-butyl-1-(4-(trifluoromethyl)phenylsulf-onyl)-2,3-dihydro-1H-pyrido[2,3-b][1,4]oxazine-7-carboxamide], the 50% effective concentration (EC50) at human CB2 receptor (setting [1]), on rat CB2 receptor and on human CB1 receptor was above 30 µM in each case.
As to `O=C(NC1(C(=O)O)CC1)c1cnc2c(c1)N(S(=O)(=O)c1ccc(C(F)(F)F)cc1)CCO2` [Example 206, 1-(1-(4-(trifluoromethyl)phenylsulfonyl)-2,3-dihydro-1H-pyrido[2,3-b][1,4]oxazine-7-carboxamido)cyclopropanecarboxylic acid], the EC50 at human CB2 receptor (setting [1]), at rat CB2 receptor and on human CB1 receptor was above 30 µM throughout.
Regarding `CC(C)(CO)NC(=O)c1cnc2c(c1)N(S(=O)(=O)N1CCC(c3ccccc3)CC1)CCO2` [Example 160, N-(1-hydroxy-2-methylpropan-2-yl)-1-(4-phenylpiperidin-1-ylsulfonyl)-2,3-dihydro-1H-pyrido[2,3-b][1,4]oxazine-7-carboxamide], the EC50 on human CB2 receptor, at rat CB2 receptor and at human CB1 receptor was above 30 µM throughout.
As for `CC(C)(CO)CNC(=O)c1cnc2c(c1)N(S(=O)(=O)N1CCc3ccccc3C1)CCO2` [Example 191, 1-(3,4-dihydroisoquinolin-2(1H)-ylsulfonyl)-N-(3-hydroxy-2,2-dimethylpropyl)-2,3-dihydro-1H pyrido[2,3-b][1,4]oxazine-7-carboxamide], the results for the EC50 at human CB2 receptor, on rat CB2 receptor and at human CB1 receptor were above 30 µM, at most 0.03 µM and above 30 µM, respectively.
Turning to `CC(C)(C)NC(=O)c1cnc2c(c1)N(Cc1ccc(F)cc1)C(=O)CO2` [Example 218, N-tert-butyl-1-(4-fluorobenzyl)-2-oxo-2,3-dihydro-1H-pyrido[2,3-b][1,4]oxazine-7-carboxamide], the concentration giving a half-maximal response (EC50) on human CB2 receptor is at most 0.03 µM; on rat CB2 receptor, at most 0.03 µM; at human CB1 receptor, above 30 µM.
